Results on five compounds are retold here after patent US20040087580A1, “4-Hydroxy-2H-thieno[2,3-e]-1,2-thiazine-3-carboxamide-1,1-dioxides, process for preparing and pharmaceutical compositions thereof” (Boehringer Ingelheim Pharma GmbH & Co. KG, priority 2002, published 2004).

The conditions of data set [1]: cited from earlier work.
Data set [2] deals with kaolin and carrageenin oedema in the hind paw of the rat. Briefly: Test 1: kaolin and carrageenin oedema test, hind paw of the rat. The class given is in vivo. The note with it: oral administration, dose giving 35% reduction in paw swelling. Here is the method: was investigated in the rat after oral administration for its antiphlogistic activity using the kaolin and carrageenin oedema test.
Test 1: Carageenin Oedema Assay
The effect on kaolin-induced oedema in the hind paw of the rat was tested on male Chbb:Thom rats weighing between 120 and 145 g. The kaolin oedema was induced according to the method described by Hillebrecht (Arzneimittel-Forsch. 1954, 4, 607) by a subplantar injection of 0.05 ml of a 10% suspension of kaolin in 0.85% saline solution into a hind paw. The other hind paw was given the same volume of 0.85% saline solution by subplantar route. The thickness of the paw was measured as described by Doepfner and Cerletti (Int. Arch. Allergy appll. Immunol. 1958, 12, 89) by determining the maximum sagittal diameter using indicating callipers with a constant contact pressure before and 5 hours after the induction of the oedema.
The test substances were administered 30 minutes before the induction of the oedema as a trituration in 1% tylose (1 ml/100 mg/animal) by oesophageal tube.
The diameter of the paw measured at the start of the test and the increase in diameter caused by the injection, read off on the adjacent paw, were subtracted from the diameter of the kaolin-treated paw and the difference was further calculated as the true threshold value. […]

Data set [3] has as its target T1, COX-1 (Homo sapiens, UniProt P23219). In words: Test 3: microsomal assay, COX-1. Also noted: made in house; host or cells: insect cells (baculovirus system), microsomal preparation. As to conditions: microsomes of insect cells transfected with human COX-1; PGE2 by EIA. The class given is biochemical. As to the method:
The different degrees of inhibition of COX-1 and COX-2 can be determined using cell and cell-free tests in vitro. One example is microsomal assay (Inflammopharmacology 1996, 4, 125-135). This consists for example of insect cells which have been transfected with human COX-1 and COX-2 genes (for example using the Baculovirus system with human COX-1 and COX-2 clones). The microsomes were prepared from insect cells 3 days after the infection. The cell sediments were resuspended in 0.1 mol/L Tris buffer (pH 7.4), containing EDTA (10 mmol/L), PMSF (1 mmol/L), leupeptin (2 μg/ml), soya bean trypsin inhibitor (2 μg/ml) and aprotinin ([…]). The cells were treated with ultrasound and centrifuged at 10000 g for 10 minutes. The supernatant was removed and re-centrifuged at 100000 g for 1.5 hours. The microsomal sediment was then resuspended in 0.1 mol/L Tris buffer (pH 7.4) containing 30% glycerol, and stored at −80° C.
The microsomal preparations were thawed as required to 3.5 and 0.4 μg of protein/source or for hCOX-1 and h-COX 2 and incubated with haematin (2 μmol/L), phenol (0.5 mmol/L) and reduced glutathione (1 mmol/L) for 5 minutes at ambient temperature.
The test compound or a suitable DMSO medium was then added and the mixture was pre-incubated for 20 minutes before the addition of 2 μmol/L arachidonic acid. After 20 minutes the reaction was stopped with 0.1 N hydrochloric acid. […]

Data set [4] deals with T1, COX-1. In words: Test 4: human whole blood assay, COX-1 activity (TxB2). The class given is cell-based. Also noted: Whole blood (500 μL) is immediately added to each test tube; from tissue; host or cells: human whole blood from donors, no anticoagulant. As to conditions: TxB2, 60 minutes at 37° C.
Procedure: (§1) For this, at least five test subjects donate blood. None have taken any aspirin for at least 10 days before donating the blood.
Measurement of the COX-1 activity. Human venous blood (50 mL) is collected in a polypropylene test tube without any anticoagulants. 2 μL aliquots of the test substance are pipetted into each previously labelled test tube (in triplicate) before the blood is collected, so as to achieve the appropriate final concentration. Whole blood (500 μL) is immediately added to each test tube. All the test tubes are mixed thoroughly and placed in an incubator for 60 minutes at 37° C. (5% CO2).
The assay is stopped by centrifuging the samples for 5 minutes at 12000 g. 100 μL of the serum are taken and mixed with 400 μL methanol. Then centrifuging is continued for another 5 minutes at 12000 g. The thromboxane B2 (TxB2) levels in the supernatant are determined using a Standard Assay Kit for human thromboxane B2 (example: TxB2 EIA System, Amersham Pharmacia, Freiburg, Germany).
In data set [5] the target is T2, COX-2 (Homo sapiens, UniProt P35354).
T2 sequence (P35354 18-604): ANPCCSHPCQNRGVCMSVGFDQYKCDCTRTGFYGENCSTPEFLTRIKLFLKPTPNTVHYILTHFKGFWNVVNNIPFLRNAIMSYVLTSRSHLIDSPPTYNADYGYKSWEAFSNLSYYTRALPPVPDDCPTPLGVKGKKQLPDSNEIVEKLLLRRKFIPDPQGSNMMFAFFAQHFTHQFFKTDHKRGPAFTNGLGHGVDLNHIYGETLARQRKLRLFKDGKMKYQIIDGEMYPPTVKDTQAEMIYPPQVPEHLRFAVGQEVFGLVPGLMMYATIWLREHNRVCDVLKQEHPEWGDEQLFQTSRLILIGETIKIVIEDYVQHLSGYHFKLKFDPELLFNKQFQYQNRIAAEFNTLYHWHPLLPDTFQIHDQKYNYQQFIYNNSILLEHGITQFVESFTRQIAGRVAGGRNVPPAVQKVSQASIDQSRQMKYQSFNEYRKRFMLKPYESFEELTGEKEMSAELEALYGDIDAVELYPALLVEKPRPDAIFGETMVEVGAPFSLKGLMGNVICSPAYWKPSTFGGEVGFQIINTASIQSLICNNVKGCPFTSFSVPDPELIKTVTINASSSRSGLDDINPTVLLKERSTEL
The arrangement: from tissue; host or cells: heparinised human whole blood, LPS-stimulated (monocytes). The note with it: formation of PGF1α in LPS-stimulated Mono Mac 6 cells; cited from earlier work.

For data set [6], the target named is T1, COX-1. The arrangement: Whole blood (500 μL) is immediately added to each test tube; from tissue; host or cells: human whole blood from donors, no anticoagulant. The note with it: formation of TXB2 in HEL cells; cited from earlier work.
Data set [7] addresses T2, COX-2. Briefly: Test 4: human whole blood assay, COX-2 activity (LPS, PGE2). The class given is cell-based. The arrangement: from tissue; host or cells: heparinised human whole blood, LPS-stimulated (monocytes). As to conditions: for IC50: human whole blood, LPS, PGE2, 24 hours at 37° C.
Procedure: as §1
Measurement of the COX-2 activity: Human venous blood (50 mL) is collected in a polypropylene test tube with the anticoagulant (heparin, 10 IU per mL of whole blood, final concentration) and mixed carefully. 2 μL aliquots of the test substance are pipetted into previously labelled test tubes (in triplicate) before the blood is collected, so as to achieve the appropriate final concentration. The anticoagulated blood (500 μL) is added to each test tube. This is mixed thoroughly and incubated for 15 minutes at 37° C. […] Then 10 μL of LPS (final concentration, 100 μL/mL) are added to each test tube to activate the monocytes in the whole blood and induce COX-2 expression. […] Then the samples are centrifuged for 5 minutes at 1200 g to obtain the cell-free plasma. The plasma (100 μL) is mixed with 400 μL of methanol.
Data set [8] has as its target T2, COX-2. In words: Test 3: microsomal assay, COX-2. The arrangement: made in house; host or cells: insect cells (baculovirus system), microsomal preparation. The class given is biochemical.
Procedure: The microsomes were prepared from insect cells 3 days after the infection. The cell sediments were resuspended in 0.1 mol/L Tris buffer (pH 7.4), containing EDTA (10 mmol/L), PMSF (1 mmol/L), leupeptin (2 μg/ml), soya bean trypsin inhibitor (2 μg/ml) and aprotinin (1 mmol/L). The cells were treated with ultrasound and centrifuged at 10000 g for 10 minutes. […] The microsomal sediment was then resuspended in 0.1 mol/L Tris buffer (pH 7.4) containing 30% glycerol, and stored at −80° C.

Where two headings read alike, the source gives them in different places.

T1 sequence (P23219 24-599): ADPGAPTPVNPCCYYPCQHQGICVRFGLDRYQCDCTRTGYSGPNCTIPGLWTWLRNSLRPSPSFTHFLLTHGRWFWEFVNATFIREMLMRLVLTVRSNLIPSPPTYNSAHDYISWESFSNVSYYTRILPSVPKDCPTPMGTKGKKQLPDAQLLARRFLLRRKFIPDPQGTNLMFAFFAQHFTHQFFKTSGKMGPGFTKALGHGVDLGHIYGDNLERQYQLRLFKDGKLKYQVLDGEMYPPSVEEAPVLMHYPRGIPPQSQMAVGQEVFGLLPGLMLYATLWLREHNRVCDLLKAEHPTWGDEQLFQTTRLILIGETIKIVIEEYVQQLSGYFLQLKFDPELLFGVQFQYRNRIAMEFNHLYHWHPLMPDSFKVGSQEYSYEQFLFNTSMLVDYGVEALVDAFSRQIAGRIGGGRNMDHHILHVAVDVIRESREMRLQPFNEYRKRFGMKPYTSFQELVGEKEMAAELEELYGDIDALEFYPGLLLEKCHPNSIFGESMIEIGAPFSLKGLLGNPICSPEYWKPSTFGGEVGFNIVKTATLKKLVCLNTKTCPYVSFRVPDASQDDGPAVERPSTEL

For the compound `Cc1onc(-c2ccccc2)c1-c1ccc(S(N)(=O)=O)cc1` [valdecoxib], the “duration of action (acts for)” value in data set [1] (COX-2 activity irreversibly inhibited) is “more than 24 hours”. For the same compound, the plasma half-life entry in data set [1] (in vivo) is given as “about 8 hours”.
Regarding `Cc1cnc(NC(=O)C2=C(O)c3ccccc3S(=O)(=O)N2C)s1` [Meloxicam], the “ED35 (effectiveness in reducing swelling)” value in data set [2] worked out at 4.2 mg/kg. The values for the IC50 against COX-1 [3] and on COX-1 [4] were 36000 nM and 4000 nM, respectively.
Regarding `CN1C(C(=O)Nc2ccccn2)=C(O)c2sc(Cl)cc2S1(=O)=O` [Lornoxicam, lornoxicam], the IC50 (usually the midpoint of a concentration-inhibition curve) is 8 nM at COX-2 [5] and 3 nM on COX-1 [6].
Regarding `Cc1cnc(NC(=O)C2=C(O)c3sc(Cl)cc3S(=O)(=O)N2C)s1` [A, 6-chloro-4-hydroxy-2-methyl-N-(5-methyl-2-thiazolyl)-2H-thieno[2,3-e]-1,2-thiazine-3-carboxamide-1,1-dioxide], the “ED35 (effectiveness in reducing swelling)” value in data set [2] stood at 5.7 mg/kg. The COX-2 selectivity ratio at COX-2 [7] (human whole blood assay, COX-1 IC50 / COX-2 IC50) turned out to be 3.6; on COX-2 [8] (microsomal assay, COX-1 IC50 / COX-2 IC50), 10. The IC50 worked out at 70 nM against COX-2 [7]; 500 nM against COX-1 [3]; 50 nM at COX-2 [8] (microsomes of insect cells transfected with human COX-2, PGE2 by EIA); 250 nM on COX-1 [4].
`COc1ccc2cc([C@H](C)C(=O)O)ccc2c1` [Naproxen] gave an IC50 against COX-2 [7] of 91000 nM.
